The values below come from US20110077232A1, “COMPOSITIONS COMPRISING ATORVASTATIN 4-(NITROOXY) BUTYL ESTER AND A HYPOLIPIDEMIC DRUG” (Nicox S.A., priority 2008, published 2011).

The test system of data set [1] is female APOE*3Leiden mice. The data set is described as follows: Plasma triglycerides, Method 1. Type of data set: in vivo. To be noted: for Triglycerides: means ± SD. On the procedure: (§1) At the end of each treatment period blood was collected for the indicated lipid and inflammation parameters and at sacrifice livers and plasma/serum were collected.
Triglycerides level was determined using kit “Triglycerides GPO-PAP” from Roche.

In data set [2] the test system is female APOE*3Leiden mice. The data set is described as follows: Total plasma cholesterol, Method 1. Type of data set: in vivo. Also on record: decreased plasma cholesterol levels (vs control): concentration or dose not given beside the values. The following applies: for Cholesterol: means ± SD. The procedure:
Total plasma cholesterol was determined using kit “Chol R1” is from Roche.

Data set [3] has as its system female APOE*3Leiden mice. The data set is described as follows: Plasma ALT levels (liver function), Method 1. Type of data set: in vivo. The following applies: for ALT: pooled plasma. The procedure: Alanine transaminase (ALT), as measure for liver function, was measured in pooled samples using the spectrophotometric assay of the Boehringer Reflotron system.
In data set [4] the test system is female APOE*3Leiden mice. The data set is described as follows: Progression of atherosclerosis (overall, lesion area), Method 2. The following applies: 12 weeks; result in words. Type of data set: in vivo. The procedure: (§2) Fifty-six female APOE*3Leiden mice (age 11-13 weeks, body weight 20-25 gram) were put on a semi-synthetic Western-type diet for 4 weeks and were subsequently treated with or without NO-atorvastatin (13.0 mg/kg b.w. or 0.0108% w/w), ezetimibe (0.1 mg/kg b.w. or 0.000083% w/w until week 6 and 0.3 mg/kg b.w. or 0.000249% w/w from week 6-12) and a combination of NO-atorvastatin with ezetimibe for 12 weeks. At time point t=0, t=4, t=8 and t=12 blood was collected for the measurement of the indicated lipid and inflammation parameters and at sacrifice serum, heart, thoracic aorta and liver were collected. The number of lesions and the number of undiseased segments in the aortic root were measured.

For data set [5], the system named is female APOE*3Leiden mice. The data set is described as follows: Number of lesions in the aortic root, Method 2. To be noted: for influence on number of lesions as compared to the control group: 12 weeks, result in words; for Lesion number per cross section: t = 12 weeks, NO-atorvastatin 13.0 mg/kg, ezetimibe 0.1 then 0.3 mg/kg, means±SD. Type of data set: in vivo. The procedure: as §2
The number of lesions per cross section is presented as absolute values (means±SD).

Data set [6] has as its system female APOE*3Leiden mice. The data set can be described thus: Undiseased segments in the aortic root, Method 2. Type of data set: in vivo. To be noted: 12 weeks; for Undiseased segments (% of total): aortic root, n=12 per group, means±SD. The procedure: as §2
The number of undiseased segments in the aortic root was counted individually (n=12 per group) and calculated as percentage of all quantified segments. Values are percentages (means±SD).

In data set [7] the test system is female APOE*3Leiden mice. To be noted: t = 8 weeks; means ± SD, n ≧ 9 mice per group. The procedure:
as §1
P-Selectin, adhesion molecule as inflammation marker, was determined using commercially available Elisa kit.

The mark [8] stands for this setting: t = 0 (before treatment), n ≧ 9 mice per group.
The mark [9] stands for this setting: t = 4 weeks, NO-atorvastatin 4.3 mg/kg, fenofibrate 1 mg/kg.
[10] abbreviates: t = 8 weeks, NO-atorvastatin 13 mg/kg, fenofibrate 3 mg/kg from week 4.
The mark [11] stands for this setting: t = 8 weeks, NO-atorvastatin 13 mg/kg, ezetimibe 0.1 mg/kg, fenofibrate 3 mg/kg from week 4.
Setting [12] is: t = 4 weeks, NO-atorvastatin 4.3 mg/kg, ezetimibe 0.1 mg/kg, fenofibrate 1 mg/kg.
[13] abbreviates: t = 4 weeks, NO-atorvastatin 4.3 mg/kg, ezetimibe 0.1 mg/kg, fenofibrate 1 mg/kg in diet.

`CC(C)OC(=O)C(C)(C)Oc1ccc(C(=O)c2ccc(Cl)cc2)cc1` [Fenofibrate, fenofibrate]: the Triglycerides in the data set with female APOE*3Leiden mice [1] (setting [8]) is given as 2.6 ± 0.7 mmol/L; in the data set with female APOE*3Leiden mice [1] (setting [9]) it was 2.2 ± 0.5 mmol/L; in the data set on female APOE*3Leiden mice [1] (setting [10]) it was 1.6 ± 0.5 mmol/L. In the data set on female APOE*3Leiden mice [1] (t=8 weeks), the “decrease of plasma triglycerides compared to the control group” value is listed as 41%. The “decreased plasma cholesterol levels (vs control)” value was “no effect” with female APOE*3Leiden mice [2] (after 4 weeks of treatment) and −28% in the data set on female APOE*3Leiden mice [2] (after 8 weeks of treatment). This compound also came in with a Cholesterol in the data set with female APOE*3Leiden mice [2] (setting [11]) of 16.5 ± 2.2 mmol/L. Moreover, the “increased ALT levels as compared to the control mice” value is recorded as “+43%” in the data set with female APOE*3Leiden mice [3] (t=4 weeks) and “+60%” in the data set on female APOE*3Leiden mice [3] (t=8 weeks).

Regarding `O=C1[C@H](CC[C@H](O)c2ccc(F)cc2)[C@@H](c2ccc(O)cc2)N1c1ccc(F)cc1` [Ezetimibe, ezetimibe], the “effect on progression of atherosclerosis” value in the data set with female APOE*3Leiden mice [4] is reported as “did not affect the progression of atherosclerosis”. Moreover, the “decreased plasma cholesterol levels (vs control)” value with female APOE*3Leiden mice [2] (after 4 weeks of treatment) is on record as −25%; in the data set on female APOE*3Leiden mice [2] (after 8 weeks of treatment) it was −35%. The Cholesterol in the data set on female APOE*3Leiden mice [2] (setting [8]) is given as 18.6 ± 2.6 mmol/L; in the data set with female APOE*3Leiden mice [2] (setting [12]), 16.8 ± 2.4 mmol/L; in the data set with female APOE*3Leiden mice [2] (setting [11]), 14.9 ± 3.2 mmol/L. Moreover, the “influence on number of lesions as compared to the control group” value in the data set with female APOE*3Leiden mice [5] is “did not influence the number of lesions”. Besides, in the data set on female APOE*3Leiden mice [5], the “Lesion number per cross section” value came to 3.5 ± 1.0. Moreover, the ALT in the data set with female APOE*3Leiden mice [3] (setting [8]) was 120 U/L; in the data set with female APOE*3Leiden mice [3] (setting [13]), 92 U/L; in the data set with female APOE*3Leiden mice [3] (setting [11]), 81 U/L. The “effect on number of undiseased segments” value in the data set on female APOE*3Leiden mice [6] (result in words) is listed as “did not affect the number of undiseased segments”. In addition, in the data set on female APOE*3Leiden mice [6], the “Undiseased segments (% of total)” value is reported as 16.0 ± 14.8 % of total.

Regarding `CC(C)c1c(C(=O)Nc2ccccc2)c(-c2ccccc2)c(-c2ccc(F)cc2)n1CC[C@@H](O)C[C@@H](O)CC(=O)OCCCCO[N+](=O)[O-]` [NO-atorvastatin, atorvastatin 4-(nitrooxy) butyl ester], the “effect on progression of atherosclerosis” value in the data set on female APOE*3Leiden mice [4] is “reduced atherosclerosis in lesion area”. The Triglycerides in the data set with female APOE*3Leiden mice [1] (setting [8]) is 2.7 ± 0.3 mmol/L; with female APOE*3Leiden mice [1] (setting [9]) it was 3.2 ± 0.7 mmol/L; in the data set on female APOE*3Leiden mice [1] (setting [10]) it was 2.7 ± 0.5 mmol/L. The “decreased plasma cholesterol levels (vs control)” value with female APOE*3Leiden mice [2] (after 4 weeks of treatment) is listed as −21%; in the data set on female APOE*3Leiden mice [2] (after 8 weeks of treatment), −34%. The Cholesterol came to 18.6 ± 2.8 mmol/L in the data set with female APOE*3Leiden mice [2] (setting [8]), 17.7 ± 2.5 mmol/L in the data set on female APOE*3Leiden mice [2] (setting [12]) and 15.2 ± 3.0 mmol/L with female APOE*3Leiden mice [2] (setting [11]). Besides, the P-Selectin with female APOE*3Leiden mice [7] is 190 ± 23 ng/mL. In the data set on female APOE*3Leiden mice [5], the “influence on number of lesions as compared to the control group” value is “did not influence the number of lesions”. Moreover, the “Lesion number per cross section” value with female APOE*3Leiden mice [5] is 3.2 ± 0.7. Also, the ALT in the data set with female APOE*3Leiden mice [3] (setting [8]) was determined as 120 U/L; with female APOE*3Leiden mice [3] (setting [13]), 114 U/L; in the data set with female APOE*3Leiden mice [3] (setting [11]), 91 U/L. For the same compound, the “Undiseased segments (% of total)” value in the data set with female APOE*3Leiden mice [6] is 26.4 ± 15.0 % of total.
